Patent US11098017B2, “Compounds for treating disorders associated with abnormal steroidogenesis” (The General Hospital Corporation, priority 2017, dated 2021)
Read-outs that look alike come from different tables or passages of the source.

How the values were obtained:
[1] = tested on: adrenocortical steroid synthesis; experiment: ACTH-stimulation test in dexamethasone-suppressed rats, plasma adrenocortical steroids by ELISA; details: for inhibition of adrenocortical steroid synthesis (FIG. 10): rats, 3 mg/kg IV dose
Experimental: Briefly, rats were pretreated with dexamethasone (0.2 mg/kg intravenously) to reduce endogenous ACTH production and minimize baseline adrenocortical steroid concentrations. Two hours later and after receiving a second dexamethasone dose, rats received ACTH1-24 (IV) and the desired dose of either etomidate or dimethoxy-etomidate solubilized in water containing a 1:1 molar ratio of Captisol (Ligand Pharmaceuticals, San Diego, Calif.) or water containing Captisol vehicle alone as a control. Fifteen minutes later, a blood sample was drawn and ACTH-stimulated adrenocortical steroid concentrations in the plasma were determined using enzyme-linked immunosorbent assays and a 96-well plate reader (Molecular Devices, Sunnyvale, Calif.).

11β-hydroxylase [2] = molecular target: T1, 11β-hydroxylase (Homo sapiens, UniProt P15538); details: previously reported work; cited from earlier work
T1 sequence (P15538 25-503): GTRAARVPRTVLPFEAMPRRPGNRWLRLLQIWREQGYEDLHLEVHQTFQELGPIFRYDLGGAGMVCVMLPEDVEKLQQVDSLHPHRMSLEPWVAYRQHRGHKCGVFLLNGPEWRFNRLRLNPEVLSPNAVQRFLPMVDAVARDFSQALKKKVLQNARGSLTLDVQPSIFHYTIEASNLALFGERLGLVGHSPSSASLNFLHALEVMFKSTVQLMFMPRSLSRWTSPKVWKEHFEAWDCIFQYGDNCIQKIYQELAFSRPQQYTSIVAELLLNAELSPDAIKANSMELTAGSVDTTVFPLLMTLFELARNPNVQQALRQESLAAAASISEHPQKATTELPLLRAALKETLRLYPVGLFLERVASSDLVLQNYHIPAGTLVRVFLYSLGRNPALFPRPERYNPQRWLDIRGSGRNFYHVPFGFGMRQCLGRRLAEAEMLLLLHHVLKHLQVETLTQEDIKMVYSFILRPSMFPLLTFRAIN

Sprague-Dawley rats [3] = experiment: Loss of righting reflexes (LORR) assay, sedative-hypnotic activity; details: for ED50: Rattus norvegicus, iv, read-out: ED50 for loss of righting reflexes; for dose producing loss of righting reflexes in all rats: IV
Experimental: Briefly, the desired dose of drug in dimethyl sulfoxide vehicle (0.1-0.3 mL) was rapidly (<5 s) injected through a 24-gauge intravenous catheter placed in a tail vein. This was followed by a 0.5-mL normal saline flush. Immediately after injection, rats were turned supine. […] The duration of LORR was defined as the time from drug injection until the animal spontaneously righted itself onto all four legs.

Sprague-Dawley rats [4] = experiment: Myoclonic movements in rats, two-way crossover; type: in vivo, rat; details: 3 mg/kg IV; for occurrence of myoclonus and LoRR: 30-minute observation, n=8
Experimental: Rats were immediately tested for LoRR and the number of myoclonic events was recorded during each 5-minute epoch for 30 minutes. A myoclonic event was defined as an unproductive (i.e., not associated with LoRR, feeding, or grooming behaviors) movement. Each distinct jerk or tremor constituted a single event. To avoid potentially confounding movements associated with bruxing, boggling, sniffing, and grooming, myoclonus was only considered to occur in the head and jaw when there was the presence of abnormal tongue lolling and jaw movement, or a sharp head movement out of sync with the rats breathing. At the end of the 30-minute observation period, rats were returned to their cages. After a 24-hour recovery period, each rat was crossed over to the other drug group and the experiment repeated.

[5] = 50 mg/kg intravenous dose; cited from earlier work
α1β3γ2L GABAA receptor = molecular target: T2, α1β3γ2L GABAA receptor (Homo sapiens, UniProt P14867+P28472); experiment: GABAA receptor electrophysiology, potentiation of EC5 GABA-evoked currents in Xenopus oocytes; type: cell-based; details: for maximum peak current at high drug concentrations, % of that produced by 1 mM GABA: Hill fit, EC5 GABA + drug
T2 construct: expressed in transfected cells; host or cells: Xenopus oocytes injected with mRNA
Experimental: Oocytes were then incubated in ND96 buffer (96 mM NaCl, 2 mM KCl, 1.8 mM CaCl2, 1 mM MgCl2, 5 mM HEPES, pH=7.4) containing 0.05 mg/mL of gentamicin for 18 to 48 hours at 18° C. before electrophysiological study. […] For each oocyte, a GABA concentration-peak current response curve was generated to define the GABA concentration that elicits 5% of the current evoked by 1 mM GABA (i.e., EC5 GABA). The effect of drug (etomidate or dimethoxy-etomidate) was then defined in that oocyte by perfusing it with EC5 GABA alone for 15-20 s followed immediately by EC5 GABA+drug at the desired concentration for 20-60 s. The resulting current response was then recorded. The peak current response recorded in the presence of EC5 GABA+drug was then normalized to the peak current response evoked by 1 mM GABA. Between electrophysiological recordings, oocytes were perfused with buffer for at least 3 min to remove GABA (and drug, if present) and to allow receptors to recover from desensitization.
In these fits, the minimum was constrained to 5% (by definition, for EC5 evoked currents).

11β-hydroxylase [6] = molecular target: T3, 11β-hydroxylase (Rattus norvegicus, UniProt P15393); experiment: Displacement of [3H]-etomidate from adrenal membranes; type: binding
T3 construct: tissue BioreclamationlVT; host or cells: membranes (homogenate pellet) from Sprague-Dawley rat adrenal glands
T3 sequence (P15393 25-499): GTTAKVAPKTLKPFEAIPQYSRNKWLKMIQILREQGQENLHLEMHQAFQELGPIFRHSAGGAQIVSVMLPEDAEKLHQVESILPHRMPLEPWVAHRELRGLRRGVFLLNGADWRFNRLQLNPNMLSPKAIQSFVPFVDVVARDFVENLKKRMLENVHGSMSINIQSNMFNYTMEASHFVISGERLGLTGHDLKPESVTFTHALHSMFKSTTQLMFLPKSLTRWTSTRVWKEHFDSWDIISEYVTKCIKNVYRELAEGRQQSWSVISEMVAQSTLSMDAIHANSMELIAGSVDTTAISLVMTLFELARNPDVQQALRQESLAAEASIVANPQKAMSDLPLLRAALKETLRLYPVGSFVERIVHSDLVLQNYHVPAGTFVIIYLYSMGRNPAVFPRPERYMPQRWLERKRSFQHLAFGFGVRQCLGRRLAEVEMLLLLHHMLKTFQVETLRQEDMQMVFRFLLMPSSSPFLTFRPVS
Experimental: Briefly, 4 adrenal glands were thawed for each preparation, placed on a glass stand, cut into pieces, and then added to ice-cold preparation buffer (HEPES 10 mM, EDTA 1 mM, leupeptin 10 μg/mL, chymostatin 10 μg/mL, pepstatin A 10 μg/mL, aprotinin 2 μg/mL, polymethanesulfonyl fluoride 1 mM and ethanol 10 μg/mL). After homogenization, carboxylesterases were inactivated by incubating with 1 mM diisopropyl fluorophosphate (Sigma-Aldrich) for 60 min. The mixture was then centrifuged and the resulting pellet was washed twice. The final pellet was then re-suspended in buffer by manual homogenization, passed through a 23-gauge needle three times, aliquoted into 1 mL eppendorf tubes, and stored at −80° C. until used. The protein concentration in these samples was quantified using a Pierce BCA Protein Assay Kit (ThermoFisher, Rockford, Ill., USA). All binding experiments were performed in glass vials at room temperature with the final concentration of protein adjusted to 0.07 mg/mL. The reported data were obtained using 3 separate preparations.
After equilibration, the mixture was passed through a pre-soaked (with 0.5% polyethylenimine in water for 2 h) 25 mm GF/B glass fiber filter under suction, the filter was immediately washed twice with 5 mL of assay buffer. After drying under a heat lamp for two hours, each filter was transferred to a scintillation vial. Liquiscint scintillation cocktail (National Diagnostics, Atlanta, Ga., USA) was added to the vial and the radioactivity in the vial quantified using a Packard Tri-Carb liquid scintillation counter (Meriden, Conn., USA). The concentration-response relationships for inhibition of [^3H]-etomidate by etomidate and dimethoxy-etomidate were fit to one and two site models, respectively, using Prism 6 for Mac OS X.

[7] = 0.3 mg/kg IV, 15 min, vs vehicle control
[8] = 3 mg/kg IV, 15 min, vs vehicle control
[9] = 50 mg/kg IV, vs vehicle control

T2 sequence (P14867 28-456): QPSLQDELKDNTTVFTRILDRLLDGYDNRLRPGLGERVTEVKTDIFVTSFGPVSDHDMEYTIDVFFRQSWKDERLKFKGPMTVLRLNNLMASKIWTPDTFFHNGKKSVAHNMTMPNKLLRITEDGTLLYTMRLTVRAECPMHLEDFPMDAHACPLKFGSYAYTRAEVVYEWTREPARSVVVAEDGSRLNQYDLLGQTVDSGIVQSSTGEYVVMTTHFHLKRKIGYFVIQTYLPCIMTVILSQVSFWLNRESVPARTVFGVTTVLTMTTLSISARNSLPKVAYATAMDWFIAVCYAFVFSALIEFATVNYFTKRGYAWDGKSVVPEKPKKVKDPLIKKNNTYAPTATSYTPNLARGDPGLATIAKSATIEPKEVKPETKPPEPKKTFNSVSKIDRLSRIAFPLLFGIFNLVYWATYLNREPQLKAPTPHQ
T2 sequence (P28472 26-473): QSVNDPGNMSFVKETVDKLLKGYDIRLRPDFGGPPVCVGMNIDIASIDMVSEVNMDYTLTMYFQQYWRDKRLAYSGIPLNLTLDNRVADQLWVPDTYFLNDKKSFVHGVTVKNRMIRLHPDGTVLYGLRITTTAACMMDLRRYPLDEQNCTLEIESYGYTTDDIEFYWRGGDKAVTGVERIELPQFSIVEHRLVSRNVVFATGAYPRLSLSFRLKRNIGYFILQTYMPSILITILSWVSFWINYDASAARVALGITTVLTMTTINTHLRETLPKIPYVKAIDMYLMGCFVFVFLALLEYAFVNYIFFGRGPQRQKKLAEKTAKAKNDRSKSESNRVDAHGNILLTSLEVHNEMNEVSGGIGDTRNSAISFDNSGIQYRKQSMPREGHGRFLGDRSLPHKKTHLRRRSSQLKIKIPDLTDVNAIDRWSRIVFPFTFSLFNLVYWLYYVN
T2 sequence (P18507 40-475 partner): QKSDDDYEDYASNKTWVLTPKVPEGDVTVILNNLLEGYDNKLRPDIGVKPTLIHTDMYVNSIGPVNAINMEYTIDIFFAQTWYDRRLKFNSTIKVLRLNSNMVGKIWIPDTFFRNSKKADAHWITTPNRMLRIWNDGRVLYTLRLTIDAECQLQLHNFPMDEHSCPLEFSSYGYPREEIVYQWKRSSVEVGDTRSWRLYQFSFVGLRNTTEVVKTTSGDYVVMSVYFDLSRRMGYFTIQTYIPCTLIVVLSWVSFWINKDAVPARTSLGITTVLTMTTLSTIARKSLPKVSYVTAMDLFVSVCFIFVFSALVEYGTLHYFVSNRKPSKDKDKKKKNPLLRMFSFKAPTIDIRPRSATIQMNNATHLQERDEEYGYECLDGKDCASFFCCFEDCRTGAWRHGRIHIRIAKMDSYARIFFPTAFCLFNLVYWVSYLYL

SMILES	inhibition of adrenocortical steroid synthesis (FIG. 10) [1]	ED50 (Sprague-Dawley rats [3])	dose producing loss of righting reflexes in all rats (Sprague-Dawley rats [3])	occurrence of myoclonus and LoRR (Sprague-Dawley rats [4])	effect on ACTH-stimulated plasma 11-deoxycorticosterone concentration ([1]; 0.3 mg/kg IV)	effect on ACTH-stimulated plasma pregnenolone concentration ([1]; 0.3 mg/kg IV)	effect on ACTH-stimulated plasma progesterone concentration ([1]; 0.3 mg/kg IV)	reduction of ACTH-stimulated plasma corticosterone concentration [1, 7]	effect on ACTH-stimulated plasma 11-deoxycorticosterone concentration ([1]; 3 mg/kg IV)	effect on ACTH-stimulated plasma pregnenolone concentration ([1]; 3 mg/kg IV)	effect on ACTH-stimulated plasma progesterone concentration ([1]; 3 mg/kg IV)	ACTH-stimulated plasma corticosterone concentration ([1]; 3 mg/kg IV, 15 min)	reduction of ACTH-stimulated plasma corticosterone concentration [1, 8]	maximum peak current at high drug concentrations, % of that produced by 1 mM GABA (α1β3γ2L GABAA receptor)	IC50 (11β-hydroxylase [6])	also measured
CCOC(=O)c1cncn1[C@H](C)c1ccc2ccccc2c1 [Example 5, ethyl (R)-1-(1-(naphthalen-2-yl)ethyl)-1H-imidazole-5-carboxylate]	similarly inhibited adrenocortical steroid synthesis															
CCOC(=O)c1cccn1[C@H](C)c1ccccc1 [carboetomidate, ethyl (R)-1-(1-phenylethyl)-1H-pyrrole-2-carboxylate]																binding affinity to 11β-hydroxylase and adrenocortical inhibitory potency relative to etomidate (11β-hydroxylase [2]): reduced by three-orders of magnitude
CCOC(=O)c1cncn1[C@H](C)c1ccccc1 [etomidate, ethyl (R)-1-(1-phenylethyl)-1H-imidazole-5-carboxylate, reference compound]		0.77 ± 0.17 mg/kg	≥ 1 mg/kg	produced myoclonus and LORR in all rats	neither etomidate nor dimethoxy-etomidate altered	neither etomidate nor dimethoxy-etomidate altered	neither etomidate nor dimethoxy-etomidate altered	no significant effect	without significantly affecting	without significantly affecting	without significantly affecting	19±11 ng/m	87%	103%	0.021 µM	time required for righting reflexes to return (LoRR duration) (Sprague-Dawley rats [3]; 3 mg/kg IV, highest etomidate dose studied): 16.3 ± 0.5 min; maximum mean (±SEM) number of myoclonic events per rat (Sprague-Dawley rats [4]; 5-10-minute epoch): 13.8±2.2; mean (±SEM) total number of myoclonic events in each rat (Sprague-Dawley rats [4]; 30-minute observation period): 34±2.4; lethality [5]: lethal
CCOC(=O)c1cncn1[C@H](C)c1cc(OC)cc(OC)c1 [dimethoxy-etomidate, Ethyl (R)-1-(1-(3,5-dimethoxyphenyl)ethyl)-1H-imidazole-5-carboxylate]		72 ± 13 mg/kg	100 mg/kg	produced no myoclonic events or LoRR in any rat	neither etomidate nor dimethoxy-etomidate altered	neither etomidate nor dimethoxy-etomidate altered	neither etomidate nor dimethoxy-etomidate altered	63%	without significantly affecting	without significantly affecting	without significantly affecting	19±10 ng/m	87%	11%	0.0079 µM	time required for righting reflexes to return (LoRR duration) (Sprague-Dawley rats [3]; 100 mg/kg IV): 2.2 ± 0.7 min; sedative-hypnotic potency compared to etomidate (Sprague-Dawley rats [3]; from LoRR ED50s): two order of magnitude reduction; ACTH-stimulated plasma corticosterone concentration ([1]; 0.3 mg/kg IV, 15 min): 56 ± 13 ng/mL; ACTH-stimulated plasma 11-deoxycorticosterone concentration ([1]; 50 mg/kg IV): 24 ± 12 ng/mL; ACTH-stimulated plasma corticosterone concentration ([1]; 50 mg/kg IV): 12 ± 1 ng/mL; effect on ACTH-stimulated plasma pregnenolone concentration ([1]; 50 mg/kg IV): unaffected; effect on ACTH-stimulated plasma progesterone concentration ([1]; 50 mg/kg IV): unaffected; reduction of ACTH-stimulated plasma 11-deoxycorticosterone concentration [1, 9]: 69%; reduction of ACTH-stimulated plasma corticosterone concentration [1, 9]: 95%; EC50 (α1β3γ2L GABAA receptor): 210 µM; magnitude of peak current enhancement relative to that produced by the same concentration of etomidate (α1β3γ2L GABAA receptor; EC5 GABA evoked currents): ≤ ⅛; IC50 (11β-hydroxylase [6]; read-out: IC50 for displacement of [3H]-etomidate, low affinity site, 2 nM [3H]-etomidate, two site fit): 4.27 µM; high affinity site share of all sites (11β-hydroxylase [6]; two site fit): 55%
CCOC(=O)c1cncn1[C@H](C)c1cccc2ccccc12 [Example 4, ethyl (R)-1-(1-(naphthalen-1-yl)ethyl)-1H-imidazole-5-carboxylate]	similarly inhibited adrenocortical steroid synthesis															
